Data taken from PMC1190152, “Archazolid and apicularen: Novel specific V-ATPase inhibitors” (BMC Biochemistry, 2005).
Like-named read-outs stand apart in the source and are kept apart here.

What was measured:
F-ATPase [1] = molecular target: T1, F-ATPase (Bos taurus, UniProt P00829); assay: Inhibition of F-ATPase activity in submitochondrial particles from beef heart; type: biochemical
T1 construct: Submitochondrial particles were obtained by ultrasonic treatment of the mitochondria; from tissue; host or cells: beef heart mitochondria, submitochondrial particles
Procedure: (§1) The V-ATPase holoenzyme was purified as published elsewhere. Preparation of highly purified membranes containing Na^+/K^+-ATPase from pig kidney followed the protocol of Jørgensen with the three main steps of differential centrifugation, incubation with SDS in the presence of ATP and sucrose density gradient centrifugation in a fixed angle rotor, and led to a specific enzyme activity which was in the same range as that reported by the authors. The resulting sample was stored frozen at -20°C. To prepare crude membrane extracts, the hearts of three mice were washed three times with an ice-cold buffer of pH 8.1 consisting of 0.25 M sucrose, 5 mM Tris-HCl, 5 mM EDTA, and 10 mM Pefabloc SC (Biomol), homogenized in 5 ml of this buffer and centrifuged at 4°C for 25 min at 233,000 × gmax in a fixed angle rotor. The resulting pellet was resuspended in 5 ml of a buffer of pH 7.5, consisting of 5 mM Tris-MOPS (3-morpholinopropanesulfonic acid), 10 mM NaCl, 10 mM Pefabloc SC, 9.6 mM 2-mercaptoethanol, 0.53 mM EGTA and 0.1 % Triton X-100. After an aliquot for protein determination had been taken, 10% bovine serum albumin (final concentration) was added to the suspension which was then stored on ice until the activity assays were run. Beef heart mitochondria were isolated by differential centrifugation, following the protocol of Smith by using a blender to homogenize the heart mince. The initial homogenization buffer consisted of 250 mM saccharose, 10 mM KH2PO4, 10 mM Tris, 2 mM EGTA, 2 mM MgCl2, pH 7.4, and further isolation procedures were carried out in the same medium without EGTA [24]. Submitochondrial particles were obtained by ultrasonic treatment of the mitochondria.
(§2) Standard V-ATPase assays with a final volume of 160 μl and a pH of 8.1 consisted of 3–4 μg of protein, 50 mM Tris-MOPS, 3 mM 2-mercaptoethanol, 1 mM MgCl2, 20 mM KCl, 0.003% C12E10, 20 mM NaCl, and 3 mM Tris-HCl. After 5 min of pre-incubation at 30°C with or without inhibitors, 1 mM Tris-ATP was added and after incubation for 2 min the reaction was stopped by placing the tube in liquid nitrogen. Assays using Na^+/K^+-ATPase were performed in 160 μl at pH 7.5 and contained 0.5 μg of protein, 50 mM Tris-MOPS, 5 mM imidazole, 0.2 mM EDTA, 4 mM MgCl2, 20 mM KCl and 100 mM NaCl. After 5 min of pre-incubation at 37°C with or without inhibitors, 3 mM Tris-ATP was added and after 1 min of incubation the reaction was stopped by placing the tube in liquid nitrogen. […] After 5 min of pre-incubation at 30°C with or without inhibitors, 1 mM Tris-ATP was added and after an incubation time of 10 min the reaction was stopped by placing the tubes in liquid nitrogen. ATPase assays with submitochondrial particles from beef heart were performed in a final volume of 1 ml and a pH of 8.0. The samples contained 9–12 μg protein, 50 mM Tris, 50 mM KCl and 2.5 mM MgCl2. After 5 min of preincubation with or without inhibitors, 5 mM ATP was added, and after an additional incubation time of 15 min the reaction was stopped by the addition of 0.4 ml of 20 % TCA.
(§3) Inorganic phosphate produced in the assays of V-ATPase, Na^+/K^+-ATPase and mouse heart F-ATPase was measured according the protocol of Wieczorek et al., while the determination of inorganic phosphate produced in the assays of beef heart F-ATPase followed the method of Fiske and Subarrow using ascorbic acid as reducing agent.

F-ATPase [2] = molecular target: T2, F-ATPase (Mus musculus, UniProt P56480); assay: Inhibition of F-ATPase activity in crude membranes from mouse heart; type: biochemical
T2 construct: we prepared mitochondria rich crude membranes from mouse heart; from tissue; host or cells: mouse heart, crude membrane extract
Procedure: as §1, §2, §3

Na+/K+-ATPase = molecular target: T3, Na+/K+-ATPase (Sus scrofa, UniProt P05024); assay: Inhibition of Na+/K+-ATPase from pig kidney; type: biochemical
T3 construct: highly purified, Na^+/K^+-ATPase containing plasma membranes from pig kidney; from tissue; host or cells: pig kidney, purified plasma membranes
Procedure: as §1, §2, §3

KB-V1 = assay: Growth inhibition of multidrug-resistant KB-V1 cells (MTT assay), with or without verapamil; type: cell-based; conditions: 120 h; KB-V1, mdr human cervix carcinoma; without verapamil; MTT after 5 days
Procedure: The novel antibiotics archazolids and apicularens (Fig. 1) were checked for their impact on the cell growth of a variety of mammalian cell lines from different tissues (Tab. 1). […] Apicularen B was the only exception, with an average IC50 value two orders of magnitude higher. Growth inhibition of the multidrug-resistant cell line KB-V1 was also measured in the presence of verapamil. […] The data in Tab 1. show, that unlike the archazolids, the apicularens are poor substrates of Pgp. To visualize the impact of the antibiotics, PtK2 (potoroo kidney) cells were incubated with the inhibitors and stained for intact acidic lysosomes (Fig. 2). […] The same observation was made with KB-3-1 cells (data not shown). […] Unlike the cell lines listed in Tab. 1, the growth of PtK2 cells was not completely stopped. The same holds true for A-498 cells (human kidney carcinoma). Both cell lines grow epithelial-like. There was obviously a differential reaction of cell lines to V-ATPase inhibitors. For A-431 cells (human epidermoid carcinoma) a dependence on the expression of the EGF receptor was shown.
(§4) Cell lines were obtained from the German Collection of Microorganisms and Cell Cultures (DSMZ). Cell lines 3Y1 and M1 (embryonal fibroblasts from 129/Ola × C57BL/6 mice, [30]) were a generous gift from Dr. S. Miyamoto, Fukoka, Japan, and Dr. P. F. Mühlradt, Braunschweig, Germany. All cell lines were cultivated under conditions recommended by the supplier. Growth inhibition was measured in microtiterplates. Aliquots of 120 μl of the suspended cells (50,000/ml) were given to 60 μl of a serial dilution of the inhibitor. After 5 days, growth was determined using the MTT assay.

A-594 = assay: Growth inhibition of A-594 cells (MTT assay); type: cell-based, human; conditions: Homo sapiens, 120 h, read-out: IC50 growth inhibition
Procedure: as §4

bacterial growth = conditions: ref [11],[15],[17]; cited from earlier work
M1 = assay: Growth inhibition of M1 cells (MTT assay); type: cell-based, mouse; conditions: Mus musculus, Fibroblast, 120 h, read-out: IC50 growth inhibition
Procedure: as §4

L-929 = test system: L-929; parameters: method as in PMID 12931860; conditions: L-929, murine connective tissue; ref [17]; read-out: IC50 growth inhibition; cited from earlier work
[3] = molecular target: T4, V-ATPase holoenzyme from the midgut of the tobacco hornworm (Manduca sexta, UniProt P31403); assay: Inhibition of purified V-ATPase holoenzyme activity; type: biochemical
T4 construct: purified V-ATPase holoenzyme from the midgut of the tobacco hornworm; from tissue; host or cells: midgut of fifth instar Manduca sexta larvae
Procedure: as §1, §2, §3
Fifth instar larvae of M. sexta (Lepidoptera, Sphingidae), weighing 6–8 g, were reared under long day conditions (16 h of light) at 27°C using a synthetic diet modified according to Bell et al.

3Y1 = assay: Growth inhibition of 3Y1 cells (MTT assay); type: cell-based, rat; conditions: Rattus norvegicus, 3Y1, 120 h, read-out: IC50 growth inhibition
Procedure: as §4

[4] = molecular target: T4, V-ATPase holoenzyme from the midgut of the tobacco hornworm; parameters: method as in PMID 12186879; conditions: ref [10], cited from earlier work
Vo subunit c = molecular target: T5, Vo subunit c (Manduca sexta, UniProt P31403); parameters: method as in PMID 12186879; conditions: previous study; ref [10]; cited from earlier work
T5 construct: from tissue; host or cells: midgut of Manduca sexta larvae (purified V-ATPase)

[5] = beef heart submitochondrial particles, inhibitor 1 μM
[6] = mouse heart crude membranes, inhibitor 1 μM
[7] = experiment 1, inhibitor 0.1 mM, control 19.0
[8] = experiment 1, inhibitor 1 mM, control 19.0
[9] = experiment 2, inhibitor 1 mM, control 15.9
[10] = beef heart submitochondrial particles, specific F-ATPase inhibitors
[11] = mouse heart crude membranes, specific F-ATPase inhibitors
[12] = read-out: ATPase activity reduced to (remaining activity)

T4 sequence (P31403 whole entry): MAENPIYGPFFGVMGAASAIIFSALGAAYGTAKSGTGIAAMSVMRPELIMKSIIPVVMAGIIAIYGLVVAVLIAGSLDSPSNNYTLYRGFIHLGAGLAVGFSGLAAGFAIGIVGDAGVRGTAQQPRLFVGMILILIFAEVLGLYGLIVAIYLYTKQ
T5 sequence (P31403 whole entry): as above

Compound: CO/C1=C\C(C)=C\[C@@H](C)[C@@H](O)[C@@H](C)C/C(C)=C/C=C/[C@H](OC)[C@@H]([C@@H](C)[C@@H](O)[C@H](C)[C@@]2(O)C[C@@H](O)[C@H](C)[C@@H](C(C)C)O2)OC1=O [bafilomycin, reference compound]
- ATPase activity reduced to (remaining activity) (F-ATPase [1]; [5]): approximately 80%
- ATPase activity reduced to (remaining activity) (F-ATPase [2]; [6]): approximately 80%

Compound: C[C@@H]1O[C@@H](O[C@H]2C[C@@H](O)[C@]3(CO)[C@H]4[C@H](O)C[C@]5(C)[C@@H](C6=CC(=O)OC6)CC[C@]5(O)[C@@H]4CC[C@]3(O)C2)[C@H](O)[C@H](O)[C@H]1O [ouabain]
- specific activity of Na+/K+-ATPase (Na+/K+-ATPase; [7]): 5.2 µmol/mg/min
- specific activity of Na+/K+-ATPase (Na+/K+-ATPase; [8]): 0 µmol/mg/min
- specific activity of Na+/K+-ATPase (Na+/K+-ATPase; [9]): 0 µmol/mg/min
- effect on Na+/K+-ATPase activity (Na+/K+-ATPase; inhibitor 1 mM): completely inhibited

Compound: CNC(=O)O[C@@H](CC(C)C)c1nc([C@H]2OC(=O)/C=C/C/C(C)=C/[C@@H](O)[C@@H](C)\C=C(C)/C=C(C)\C=C\[C@@H](O)[C@H](C)[C@H](OC)/C(C)=C/C=C/[C@@H]2C)cs1 [archazolid B]
- IC50 (KB-V1): 35 nM
- IC50 (A-594): 0.69 nM
- inhibition of bacterial growth (bacterial growth): failed to inhibit
- IC50 (M1): 0.35 nM
- IC50 (L-929): 1.1 nM
- IC50 [3]: ~20 nM
- IC50 per mg of protein, purified V-ATPase ([3]; equivalent of the half-maximal concentration): ca. 0.8 nmol per mg of protein
- IC50 (3Y1): 1.1 nM

Compound: CC[C@H]1/C=C/C=C/C[C@@H](C)[C@H](O)[C@@](C)(O)C(=O)[C@@H](C)[C@H](O)[C@@H](C)C(=O)[C@@H](C)[C@H](O)[C@@H](C)/C=C/C(=O)O[C@@H]2[C@H](C)[C@H](CC1)O[C@]1(CC[C@H](C)[C@H](C[C@@H](C)O)O1)[C@H]2C [oligomycin, reference compound]
- ATPase activity reduced to (remaining activity) (F-ATPase [1]; [10]): around 25%
- ATPase activity reduced to (remaining activity) (F-ATPase [2]; [11]): around 25%

Compound: [O]=[V]([O-])([O-])[O-] [vanadate]
- specific activity of Na+/K+-ATPase (Na+/K+-ATPase; [7]): 2.0 µmol/mg/min
- specific activity of Na+/K+-ATPase (Na+/K+-ATPase; [8]): 0 µmol/mg/min
- specific activity of Na+/K+-ATPase (Na+/K+-ATPase; [9]): 0 µmol/mg/min
- effect on Na+/K+-ATPase activity (Na+/K+-ATPase; inhibitor 1 mM): completely inhibited

Compound: CO/C1=C\C(C)=C\[C@@H](C)[C@@H](O)[C@@H](C)C/C(C)=C/C=C/[C@H](OC)[C@@H]([C@@H](C)[C@@H](O)[C@H](C)[C@@]2(O)C[C@@H](OC(=O)/C=C/C(=O)NC3=C(O)CCC3=O)[C@H](C)[C@@H](C(C)C)O2)OC1=O [bafilomycin B1]
- IC50 per mg of protein, purified V-ATPase [4]: ca. 0.5 nmol per mg of protein
- IC50 ([4]; read-out: half-maximal inhibition concentration of purified V-ATPase): ~10 nM
- labelling of / binding to subunit c (Vo subunit c): prevented

Compound: [N-]=[N+]=[N-] [azide, reference compound]
- ATPase activity reduced to (remaining activity) (F-ATPase [1]; [10]): around 25%
- ATPase activity reduced to (remaining activity) (F-ATPase [2]; [11]): around 25%

Compound: apicularen
- ATPase activity reduced to (remaining activity) (F-ATPase [1]; [5]): approximately 80%
- effect of increased inhibitor concentration on F-ATPase activity (F-ATPase [1]; beef heart submitochondrial particles, inhibitor 10 μM): no substantial effect
- ATPase activity reduced to (remaining activity) (F-ATPase [2]; [6]): approximately 80%
- effect of increased inhibitor concentration on F-ATPase activity (F-ATPase [2]; mouse heart crude membranes, inhibitor 10 μM): no substantial effect

Compound: C/C=C/[C@H]1O[C@@](O)([C@@H](C)[C@H](O)[C@H](C)[C@H]2OC(=O)/C(OC)=C/C(C)=C/[C@@H](C)[C@@H](O)[C@@H](CC)[C@@H](O)[C@H](C)C/C(C)=C/C=C/[C@@H]2OC)C[C@@H](O)[C@@H]1C [concanamycin, reference compound]
- remaining activity at 1 µM (F-ATPase [1]; [12]): ~80%
- remaining activity at 1 µM (F-ATPase [2]; [12]): ~80%
